What was measured:
[1] = test system: SkinEthic RHE cultures; experiment: H and E staining and immunohistochemistry for K10, K19 and filaggrin in SkinEthic RHE cultures; assay type: cell-based, human; conditions: 6 μl test article, 72 hours
Method: (§1) SkinEthic RHE cultures were transferred into 6-well plates containing 1.0 mL/well growth media. The cultures were equilibrated at 37° C. and the media was changed daily. The cultures were subsequently placed in 60 mm petri dishes containing 3.5 mL growth media. 6 μl aliquots of the Test Articles shown in Table 3 were applied to duplicate cultures. The cultures were incubated at 37° C. for 72 hours. At the end of the incubation period, the growth media was collected and stored at −20° C. The tissues were cut in half and one half was placed in 10% NBF for histology, while the other half was placed in RNAlater™ solution (Ambion). The following analyses were performed: a) IL-1α and IL-8 activity assay; b) Hand E staining; c) Immunohistochemistry for K10, K19 and filaggrin; and d) qRT-PCR to quantitate K10, K19 and filaggrin expression.

[2] = in vitro; conditions: human, human skin microsomes, pH 7.4
Method: (§3) Hepatic microsomal reactions were carried out in microcentrifuge tubes in the following manner. Human liver microsomes (0.5 or 1.0 mg/ml protein), Test Article (1 or 10 μM), paraoxon (0, 10 or 100 μM), NADPH regenerating system (10 mM glucose-6-phosphate, 1 unit/ml glucose-6-phosphate dehydrogenase, 1 mM NADP^+), magnesium chloride (5 mM) in 0.1 M potassium phosphate buffer, pH 7.4 were incubated at 37° C. in a shaking water bath. Reactions were initiated with the addition of substrate with the exception of the zero-time incubations. The total reaction volume was 0.2 ml. The reactions were incubated for 15, 30, 45 or 60 minutes, terminated with 0.2 ml ice-cold acetonitrile and then placed on ice. For zero-time incubations, ice cold acetonitrile was added to the mixture containing microsomes, along with NADPH regenerating system, magnesium chloride in phosphate buffer and the Test Article. Each time point was carried out in triplicate.
(§4) Five time points were chosen, but because of the limitation of human skin microsome supply, each one was carried out in duplicate. Skin microsomal reactions were carried out as described above for hepatic microsomal reactions with the following two exceptions. Firstly, the total reaction volume was 0.1 mL. Secondly, incubations were terminated with 0.1 mL acetonitrile.

[3] = test system: A431 cells; experiment: PMA-induced IL-6 release from A431 cultures; assay type: cell-based, human; conditions: PMA 10 ng/mL; retinoids 0.01 to 1 μg/mL; 48 hours
Method: A431 cells were purchased from ATCC(CRL-1555). Cells were seeded onto 12-well plates at a density of 250,000 cells/well and incubated for 72 hours at 37° C./5% CO2 to allow cells to grow to confluency. Phorbol-12-myristate 13-acetate (PMA), diluted in DMSO (10 mg/mL stock), was added in a concentration of 10 ng/mL and retinoids were added in concentrations of 0.01 to 1 μg/mL from a 10 mg/mL stock solution in DMSO. Cultures were incubated for 48 hours at 37° C. At the end of the incubation period, growth media was collected and cell viability was determined using a CellTiterGlo assay kit (Promega). Concentrations of IL-6 were determined by ELISA and normalized based on cell viability.
It is known that PMA up regulates IL-6 expression through transactivation of the nuclear transcription factor, AP-1. Retinoids, such as tretinoin, are known to inhibit transactivation of AP-1 via retinoic acid receptors.

[4] = Metabolism in the presence of human skin microsomes; conditions: for Half-life / k constant: HSkM
Method: as §3, §4

[5] = Reaction with benzoyl peroxide (BPO) in solution; assay type: physicochemical; conditions: at all three temperatures (35° C., room temperature, 5° C.); BPO 50-fold excess by weight
Method: The reaction of (i) tazarotene, tazarotene benzoate, hydroxy tazarotenic acid and tazarotene nicotinate with (ii) benzoyl peroxide (BPO) in 30% aqueous solutions was monitored at 35° C., room temperature and 5° C.
Individual solutions of each compound were prepared at approximately 0.25 mg/mL in acetonitrile:water (6:4 by volume). Reactions were initiated by mixing equal volumes of the test solution with an approximately 12 mg/mL solution of benzoyl peroxide (BPO) in acetonitrile:water (4:1 by volume). Therefore, the reaction solution contained approximately 0.125 mg/mL of the test compound and the BPO was at a 50-fold excess by weight (i.e. at the same ratio as a product containing 0.1% tazarotene and 5% BPO). Aliquots of the reaction solutions were stored at various temperatures protected from light.
Reactions were quenched by diluting 30 μL of the reaction solution to 50 mL with a diluent (acetonitrile:water in a ratio of 1:1 by volume) and storing the sample at 10° C. in the LC/MS sample tray or at 5° C. for storage. Duplicate samples were prepared at each time point (three at the start of the reaction) and the results were averaged together to generate a single value.
Samples were analyzed on a Waters Acquity UPLC with a Waters Xevo TQMS using an ESI source in the positive mode controlled by MassLynx V4.1 software. […]

[6] = test system: SkinEthic RHE cultures; experiment: qRT-PCR of K10, K19 and filaggrin expression in SkinEthic RHE cultures; assay type: cell-based, human; conditions: 6 μl test article, 72 hours
Method: as §1

[7] = Stability in human plasma at room temperature; assay type: in vitro ADME
Method: (§2) Tazarotene, tazarotene sulfoxide and tazarotene benzoate were incubated at room temperature with human and rat plasma. The incubation was carried out in duplicate and samples were taken at specific time points for stability analyses (i) rat samples (0 hour, 2 hours and 4 hours) and (ii) human samples (0 hour, 2 hours, 4 hours and 8 hours). Samples were analyzed by LC-MS/MS.

[8] = Stability in rat plasma at room temperature; assay type: in vitro ADME
Method: as §2

SMILES: CCOC(=O)c1ccc(C#Cc2ccc3c(c2)C(C)(C)CC(OC(=O)c2ccccc2)S3)nc1 (centres unmarked) [Compound 4, 6-(2-(2-benzoyloxy-4,4-dimethylthiochroman-6-yl)ethynyl)nicotinic acid, ethyl ester]
- filaggrin by immunohistochemistry [1]: down regulated
- half-life at 10 µM [2]: 6.8 h
- PMA-induced IL-6 release [3]: significantly decreased
- rate of metabolism by human skin microsomes relative to human liver microsomes [4]: slower rate
- Half-life ([4]; 1 μM, Complete): 8.25 h
- k constant ([4]; 1 μM, Complete): −0.0014
- Half-life ([4]; 1 μM, Without NADPH): 3.62 h
- k constant ([4]; 1 μM, Without NADPH): −0.0032
- k constant ([4]; 10 μM, Complete): −0.0017
- Half-life ([4]; 10 μM, without NADPH): 7.7 h
- k constant ([4]; 10 μM, without NADPH): −0.0015
- metabolized ([4]; after 150 min, 2 mg/ml human skin microsomes): 20%
- less reactive with BPO than tazarotene and hydroxy tazarotenic acid [5]: ~25 times
- down regulation of K10 gene expression compared to untreated and vehicle controls [6]: uninterpretable
- down regulation of filaggrin gene expression compared to untreated and vehicle controls [6]: equivocal
- concentration in human plasma ([7]; 0 hour): 52.0 ng/mL
- concentration in human plasma ([7]; 2 hours): 52.0 ng/mL
- concentration in human plasma ([7]; 4 hours): 50.0 ng/mL
- concentration in human plasma ([7]; 8 hours): 45.8 ng/mL
- concentration in rat plasma ([8]; 0 hour): 59.8 ng/mL
- concentration in rat plasma ([8]; 2 hours): 15.0 ng/mL
- concentration in rat plasma ([8]; 4 hours): 2.29 ng/mL

SMILES: CCOC(=O)c1ccc(C#Cc2ccc3c(c2)C(C)(C)CCS3)nc1 [Tazarotene, ethyl 6-[2-(4,4-dimethylthiochroman-6-yl)-ethynyl nicotinate]
- concentration in human plasma ([7]; 0 hour): 17.1 ng/mL
- concentration in human plasma ([7]; 2 hours): 17.1 ng/mL
- concentration in human plasma ([7]; 4 hours): 16.6 ng/mL
- concentration in human plasma ([7]; 8 hours): 17.5 ng/mL
- concentration in rat plasma ([8]; 0 hour): 16.4 ng/mL
- concentration in rat plasma ([8]; 2 hours): <LOD
- concentration in rat plasma ([8]; 4 hours): <LOD

— patent publication US9062037B2, “Tazarotene derivatives” (Stiefel Laboratories, Inc., priority 2009, dated 2015)
